Consider 29 molecules from patent publication US9586931B2 (Merck Sharp & Dohme Corp., priority 2012, dated 2017).

In this assay the target is T1, recombinant human GST-Syk (Homo sapiens, UniProt P43405).
T1 construct: purchased Carna Biosciences 08-176
In words: Homogeneous Time-Resolved Fluorescence (HTRF) assay for the recombinant human Syk enzyme. It counts as biochemical. The note with it: recombinant human GST-Syk 5 pM, ATP 25 μM, 10-dose titration 10 μM to 0.508 nM; read-out: rhSYK Activity IC50. The method, boiled down: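 GST-hSyk fusion protein phosphorylated a peptide for 45 min at room temperature. The reaction was quenched with 2 nM Eu-anti-phosphotyrosine antibody and 70 nM SA-APC in 15 mM Tris pH 7.5, 40 mM EDTA, 0.01% Tween 20. The HTRF signal was read after 30 min.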
Background: Time-resolved FRET reads energy transfer from a long-lived donor to a nearby acceptor.
Usually IC50 stands for the midpoint of a concentration-inhibition curve. `Cc1cc(Nc2cc(C(F)(F)F)ccn2)nc(-c2cn(CC3(N)CC3)nn2)c1` [Example 5.112, 6-{1-[(1-aminocyclopropyl)methyl]-1H-1,2,3-triazol-4-yl}-4-methyl-N-[4-(trifluoromethyl)pyridin-2-yl]pyridin-2-amine]: the IC50 turned out to be 17 nM.
With `Cc1cc(Nc2nccc(C(F)(F)F)n2)cc(-c2cn(CC(=O)N3COCC3(C)C)nn2)c1` [Example 5.68, N-(3-{1-[2-(4,4-dimethyl-1,3-oxazolidin-3-yl)-2-oxoethyl]-1H-1,2,3-triazol-4-yl}-5-methylphenyl)-4-(trifluoromethyl)pyrimidin-2-amine] the figure was 114 nM; with `Cc1cc(Nc2nccc(C(F)(F)F)n2)cc(-c2cn(CC(O)CF)nn2)c1` (racemic) [Example 5.52, 1-fluoro-3-[4-(3-methyl-5-{[4-(trifluoromethyl)pyrimidin-2-yl]amino}phenyl)-1H-1,2,3-triazol-1-yl]propan-2-ol], 16.4 nM; with `Cc1cc(Nc2cc(C(F)F)ccn2)nc(-c2cn(C(C)C(C)(O)CO)nn2)c1` (single isomer, unassigned) [Example 30.7, 3-[4-(6-{[4-(difluoromethyl)pyridin-2-yl]amino}-4-methylpyridin-2-yl)-1H-1,2,3-triazol-1-yl]-2-methylbutane-1,2-diol], 1.4 nM.
As to `Cc1cc(Nc2nccc(C(F)(F)F)n2)cc(-c2cn(CCN)nn2)c1` [Example 5.74, N-{3-[1-(2-aminoethyl)-1H-1,2,3-triazol-4-yl]-5-methylphenyl}-4-(trifluoromethyl)pyrimidin-2-amine], the IC50 came to 187 nM.
The result for `Cc1cc(Nc2nccc(C(F)(F)F)n2)cc(-n2cc(C3(O)CCC4(CC3)OCCO4)nn2)c1` [Example 15, 8-[1-(3-Methyl-5-{[4-(trifluoromethyl)pyrimidin-2-yl]amino}phenyl)-1H-1,2,3-triazol-4-yl]-1,4-dioxaspiro[4.5]decan-8-ol] reads 94.7 nM.
On to `Cc1cc(Nc2cc(C(F)(F)F)ccn2)nc(-c2cn(C3CS(=O)(=O)CC3O)nn2)c1` (centres unmarked) [Example 5.90, 4-[4-(4-methyl-6-{[4-(trifluoromethyl)pyridin-2-yl]amino}pyridin-2-yl)-1H-1,2,3-triazol-1-yl]tetrahydrothiophene-3-ol 1,1-dioxide], for which the IC50 turned out to be 11.5 nM.
The result for `Cc1cc(Nc2cc(C(F)(F)F)ccn2)nc(-c2cn(CC3(O)CCC3)nn2)c1` [Example 4.27, 1-{[4-(4-methyl-6-{[4-(trifluoromethyl)pyridin-2-yl]amino}pyridin-2-yl)-1H-1,2,3-triazol-1-yl]methyl}cyclobutanol] reads 2 nM; that for `COc1ccc(OC)c(C(O)C(C)NC(=O)C(C)n2cc(-c3cc(C)cc(Nc4cc(C(F)(F)F)ccn4)n3)nn2)c1` (centres unmarked) [Example 1.38, N-[2-(2,5-dimethoxyphenyl)-2-hydroxy-1-methylethyl]-2-[4-(4-methyl-6-{[4-(trifluoromethyl)pyridin-2-yl]amino}pyridin-2-yl)-1H-1,2,3-triazol-1-yl]propanamide], 635 nM.
With `Cc1cc(Nc2nccc(C(F)F)n2)cc(-c2cn(C3CCCCC3O)nn2)c1` (centres unmarked) [Example 4.34], the IC50 was 4.1 nM.
For `Cc1cc(Nc2cc(C(F)(F)F)ccn2)nc(-c2cn(C3CCC(C(=O)O)C(C)(C)C3)nn2)c1` (single isomer, unassigned) [Example 9.1, (R or S) 2,2-Dimethyl-4-[4-(4-methyl-6-{[4-(trifluoromethyl)pyridin-2-yl]amino}pyridin-2-yl)-1 H-1,2,3-triazol-1-yl]cyclohexanecarboxylic acid], the IC50 stood at 3.7 nM.
`Cc1cc(Nc2nccc(C(F)(F)F)n2)cc(-c2cn(C(C)C(O)CC#N)nn2)c1` (single isomer, unassigned) [Example 4.6, 3-hydroxy-4-[4-(3-methyl-5-{[4-(trifluoromethyl)pyrimidin-2-yl]amino}phenyl)-1H-1,2,3-triazol-1-yl]pentanenitrile]: the IC50 amounted to 45.5 nM.
`Cc1cc(Nc2nccc(C(F)(F)F)n2)cc(-n2cc([C@]3(O)CC[C@@H](C(=O)O)CC3)nn2)c1` [Example 15.4, cis-4-hydroxy-4-[1-(3-methyl-5-{[4-(trifluoromethyl)pyrimidin-2-yl]amino}phenyl)-1H-1,2,3-triazol-4-yl]cyclohexanecarboxylic acid]: the IC50 was 12.5 nM.
The result for `Cc1cc(Nc2nccc(C(F)(F)F)n2)cc(-n2cc([C@]3(O)CC[C@H](C(=O)OC(C)(C)C)CC3)nn2)c1` [Example 15.5, tert-butyl trans-4-hydroxy-4-[1-(3-methyl-5-{[4-(trifluoromethyl)pyrimidin-2-yl]amino}phenyl)-1H-1,2,3-triazol-4-yl]cyclohexanecarboxylate] reads 2390 nM.
On to `Cc1cc(Nc2cc(C(F)(F)F)ccn2)nc(-c2cn(C3CNCC3O)nn2)c1` (racemic) [Example 19.1, (+/−)-(3S,4R)-4-(4-(4-Methyl-6-((4-(trifluoromethyl)pyridin-2-yl)amino)pyridin-2-yl)-1H-1,2,3-triazol-1-yl)pyrrolidin-3-ol], for which the IC50 is 32.3 nM.
Regarding `Cc1cc(Nc2cc(C(F)(F)F)ccn2)nc(-c2cn(C(CO)c3ccc(F)cc3)nn2)c1` (centres unmarked) [Example 13.7, 2-(4-fluorophenyl)-2-[4-(4-methyl-6-{[4-(trifluoromethyl)pyridin-2-yl]amino}pyridin-2-yl)-1H-1,2,3-triazol-1-yl]ethanol], the IC50 stood at 3.7 nM.
Take `Cc1cc(Nc2nccc(C3CC3)n2)cc(-c2cn(CC(C)(O)C(C)(C)O)nn2)c1` (centres unmarked) [Example 21.26, 1-(4-{3-[(4-cyclopropylpyrimidin-2-yl)amino]-5-methylphenyl}-1H-1,2,3-triazol-1-yl)-2,3-dimethylbutane-2,3-diol]: the IC50 came out at 12.7 nM.
With `COC(=O)CNC(=O)[C@@H](C)n1cc(-c2cc(C)cc(Nc3cc(C(F)(F)F)ccn3)n2)nn1` [Example 1.57, methyl N-{(2R)-2-[4-(4-methyl-6-{[4-(trifluoromethyl)pyridin-2-yl]amino}pyridin-2-yl)-1H-1,2,3-triazol-1-yl]propanoyl}glycinate] the figure was 92.8 nM; with `Cc1cc(Nc2cc(C(F)(F)F)ccn2)nc(-c2cn(C3CCCCC(O)C3O)nn2)c1` (single isomer, unassigned) [Example 10.2, 3-[4-(4-methyl-6-{[4-(trifluoromethyl)pyridin-2-yl]amino}pyridin-2-yl)-1H-1,2,3-triazol-1-yl]cycloheptane-1,2-diol], 17.7 nM.
Regarding `Cc1cc(Nc2cc(C(F)(F)F)ccn2)nc(-c2cn(CC(O)CN3CCCC3=O)nn2)c1` (centres unmarked) [Example 4.30, 1-{2-hydroxy-3-[4-(4-methyl-6-{[4-(trifluoromethyl)pyridin-2-yl]amino}pyridin-2-yl)-1H-1,2,3-triazol-1-yl]propyl}pyrrolidin-2-one], the IC50 came out at 26.6 nM.
With `Cc1cc(Nc2cc(C(F)(F)F)ccn2)nc(-c2cn(Cc3cnc(C)[nH]3)nn2)c1` [Example 5.104, 4-methyl-6-{1-[(2-methyl-1H-imidazol-5-yl)methyl]-1H-1,2,3-triazol-4-yl}-N-[4-(trifluoromethyl)pyridin-2-yl]pyridin-2-amine] the figure was 3.2 nM; with `Cc1cc(Nc2nccc(C(F)(F)F)n2)cc(-c2cn(C3CCC(C(=O)O)CC3)nn2)c1` (centres unmarked) [Example 3.16, 4-[4-(3-methyl-5-{[4-(trifluoromethyl)pyrimidin-2-yl]amino}phenyl)-1H-1,2,3-triazol-1-yl]cyclohexanecarboxylic acid], 33.3 nM; with `Cc1cc(Nc2ncc(F)c(C(F)F)n2)cc(-c2cn(CC(C)(O)C(C)(C)O)nn2)c1` (centres unmarked) [Example 21.34, 1-[4-(3-{[4-(difluoromethyl)-5-fluoropyrimidin-2-yl]amino}-5-methylphenyl)-1H-1,2,3-triazol-1-yl]-2,3-dimethylbutane-2,3-diol], 18.2 nM.
The result for `Cc1cc(Nc2nccc(C(F)(F)F)n2)cc(-c2cn(CC(C)(O)C(C)(C)O)nn2)c1` (centres unmarked) [Example 21.19, 2,3-dimethyl-1-[4-(3-methyl-5-{[4-(trifluoromethyl)pyrimidin-2-yl]amino}phenyl)-1H-1,2,3-triazol-1-yl]butane-2,3-diol] reads 29.3 nM.
The result for `Cc1cc(Nc2cc(C(F)(F)F)ccn2)nc(-c2cn([C@H](C)C(=O)O)nn2)c1` [Example 5.29, (2R)-2-[4-(4-methyl-6-{[4-(trifluoromethyl)pyridin-2-yl]amino}pyridin-2-yl)-1H-1,2,3-triazol-1-yl]propanoic acid] reads 166 nM; that for `Cc1cc(Nc2cc(C(F)(F)F)ccn2)nc(-c2cn(C3C=CCCCC3)nn2)c1` (centres unmarked) [Example 9.2, 6-(1-cyclohept-2-en-1-yl-1H-1,2,3-triazol-4-yl)-4-methyl-N-[4-(trifluoromethyl)-pyridin-2-yl]pyridin-2-amine], 54 nM; that for `CCCC(C(=O)OCC)n1cc(-c2cc(C)cc(Nc3cc(C(F)(F)F)ccn3)n2)nn1` (racemic) [Example 5.27, ethyl 2-[4-(4-methyl-6-{[4-(trifluoromethyl)pyridin-2-yl]amino}pyridin-2-yl)-1H-1,2,3-triazol-1-yl]pentanoate], 146 nM.
With `Cc1cc(Nc2cc(C(F)F)ccn2)nc(-c2cn(CC3CNC(=O)C3)nn2)c1` (single isomer, unassigned) [Example 24.1, 4-((4-(6-((4-(difluoromethyl)pyridin-2-yl)amino)-4-methylpyridin-2-yl)-1H-1,2,3-triazol-1-yl)methyl)pyrrolidin-2-one], the IC50 was 12.3 nM.
With `Cc1cc(Nc2cc(C(F)(F)F)ccn2)nc(-c2cn([C@H](C)C(=O)N3CCC[C@H]3C(=O)O)nn2)c1` [Example 3.12, 1-{(2R)-2-[4-(4-methyl-6-{[4-(trifluoromethyl)pyridin-2-yl]amino}pyridin-2-yl)-1H-1,2,3-triazol-1-yl]propanoyl}proline] the figure was 105 nM.
